The source of these data is article PMC10672269, “Evaluation of Carbonic Anhydrase, Acetylcholinesterase, Butyrylcholinesterase, and α-Glycosidase Inhibition Effects and Antioxidant Activity of Baicalin Hydrate” (Life, 2023).

Details of assay [1]: method as in PMID 31832335, PMID 16243424, PMID 24980540, PMID 36297576, doi:10.1016/j.arabjc.2009.12.008. The following applies: at similar concentration; cited from earlier work.
Details of assay [2]: method as in PMID 31832335, PMID 36144638, PMID 37693735, PMID 21554120, PMID 36297576. The following applies: at the same concentration; cited from earlier work.
For assay [3] the following is noted: cited from earlier work; for DPPH radical scavenging IC50: previous reports; for median inhibitory concentration (IC50): DPPH tests in a different investigation.
For assay [4] the following is noted: cited from earlier work.
Details of assay [5]: method as in PMID 31832335, PMID 16243424, PMID 36297576, doi:10.1016/j.fbio.2022.101557, PMID 37693735. The settings on record: other existing studies; cited from earlier work.
In a further assay the target is AChE. The settings on record: cited from earlier work; for Ki: read-out: Ki towards AChE.
Assay [6] in a line: Fe3+ reducing ability (potassium ferricyanide reduction). The settings on record: at 30 μg/mL. The procedure:
According to prior investigation, baicalin hydrate’s ability to reduce Fe^3+ was achieved. Also, according to previous works, the Fe^3+-reducing effect of baicalin hydrate was tested. Briefly, 0.75 mL of deionized water and different doses of baicalin hydrate (10–30 μg/mL) were combined with 1.25 mL sodium phosphate buffer (pH 6.6, 0.2 M) and 1.25 mL of K3[Fe(CN)6] (1%). After 30 min incubation at 30 °C, the reaction medium was acidified with 1 mL trichloroacetic acid (10%, TCA) and re-incubated in the dark for 30 min. Finally, 0.5 mL of FeCl3 (0.1%) was transferred to the solution. The absorbance values of baicalin hydrate and references were recorded at 700 nm. The increased absorbance of the reaction mixture reflects an increasing reduction ability.

Assay [7] in a line: Cu2+ reducing ability (cupric ions reducing). The settings on record: at 30 μg/mL. The procedure:
The technique of Apak et al. was utilized to assess the cupric ions (Cu^2+) reducing capacity of baicalin hydrate. After carrying out the required experimental procedures, the absorbances were detected at 450 nm using a spectrophotometer (Shimadzu, UV-1280, Kyoto, Japan). To do so, 0.2 mL CuCl2 solution (10 mM), 200 µL neocuproine solution (7.5 mM), and 200 µL CH3COONa buffer solution (1.0 M) were added to a test tube. The solution was mixed with different concentrations of baicalin hydrate (10–30 μg/mL). The total volume then reduced to 1.5 mL by adding distilled water and stored at room temperature. After 30 min incubation, the absorbances of the samples were measured at 450 nm. The increased absorbance of the reaction reflects increased reduction capacity.

The next assay in a line: DPPH radical scavenging. The procedure:
The Blois technique was used to test the DPPH^• scavenging capacity of baicalin hydrate. Briefly, 0.25 mL of different concentrations of baicalin hydrate in ethanol (10–30 μg/mL) and 0.25 mL of DPPH radical solution (0.3 mM) in ethanol were combined with 1 mL ethanol in test tubes. The mixture was then incubated at 37 °C for 30 min. The DPPH radical scavenging activities of baicalin hydrate were measured at 517 nm.
(§1) The IC50 values were determined using plots of activity (%) versus baicalin hydrate. Ki values and other inhibition factors were determined using Lineweaver–Burk graphs.

A short description of the next assay: ABTS radical scavenging. The procedure: ABTS^•+ scavenging capacity of baicalin hydrate was measured according to a different work and was detected at 734 nm. ABTS^•+ was produced by the reaction of 2 mM ABTS in water with 2.45 mM potassium persulfate (K2S2O8), incubated in the dark at room temperature for five hours. Before usage, the ABTS^•+ solution was diluted to obtain an absorbance of 0.750 ± 0.025 at 734 nm with phosphate buffer (0.1 M, pH 7.4). Then, 1 mL of ABTS^•+ solution was added to 3 mL of baicalin hydrate in ethanol at different concentrations (10–30 µg/mL).
as §1

The next assay can be described thus: DMPD radical scavenging. The procedure: Baicalin hydrate was evaluated for its capacity to remove DMPD^•+ using the Fogliano technique. For this purpose, 0.5 mL of FeCl3 (50 mM) and 1.5 mL of DMPD solution were added to the buffer solution (pH 5.3, 0.1 M). Then, this mixture was added to 1 mL of different concentrations (10–30 μg/mL) of baicalin hydrate. Then, the total volume was adjusted to 4 mL using deionized water. Finally, 1 mL of DMPD radicals were added, and their absorbances were recorded at 505 nm.
as §1

Several values for one entry are separate records, joined by “and”; a condition that tells them apart may be missing. Identical values can stand only once. Like-named read-outs stand apart in the source and are kept apart here.

As to `O=c1c(O)c(-c2ccc(O[C@@H]3O[C@H](CO)[C@@H](O)[C@H](O)[C@H]3O)c(O)c2)oc2cc(O)cc(O)c12` [spiraeoside], in assay [1], the “Fe^3+ reducing absorbance” value is 1.012. Besides, the “Cu^2+ reduction absorbance” value in assay [2] is recorded as 0.519. In [3], the “DPPH radical scavenging IC50” value was 28.51 µg/mL. Moreover, the “ABTS•+ scavenging IC50” value in assay [4] was 7.48 µg/mL. Moreover, in assay [5], the “DMPD•+ scavenging IC50” value was 8.15 µg/mL. For the same molecule, on AChE, the Ki was 3.4 nM.
As for `C=CCc1ccc(O)c(OC)c1` [eugenol], in [2], the “Cu^2+ reduction absorbance” value is 0.762. For the same molecule, the “DPPH radical scavenging IC50” value in assay [3] was 16.06 µg/mL. The “ABTS•+ scavenging IC50” value in [4] is 7.84 µg/mL. Also, the “DMPD•+ scavenging IC50” value in [5] was 10.04 µg/mL.
As for `O=C1c2c(O)cc(O)cc2OC(c2ccc(O)c(O)c2)C1O` (stereo not drawn) [taxifolin], the “Cu^2+ reduction absorbance” value in assay [2] was 0.750. Besides, the “DPPH radical scavenging IC50” value in [3] is 77.00 µg/mL. For the same molecule, the “ABTS•+ scavenging IC50” value in [4] was 0.83 µg/mL. In addition, the “DMPD•+ scavenging IC50” value in assay [5] is 173.25 µg/mL. The Ki at AChE is 16.7 nM.
As for `Cc1cc(C(C)(C)C)c(O)c(C(C)(C)C)c1` [BHT, butylated hydroxytoluene], in assay [6], the “Fe^3+ reducing, absorbance λ (700 nm)” value was 0.952 ± 0.023 and 0.952. Moreover, the “Cu^2+ reducing, absorbance λ (450 nm)” value in assay [7] is 2.044 ± 0.041 and 2.044. Besides, the “DPPH• scavenging IC50” value in the assay “DPPH radical scavenging” worked out at 25.95 µg/mL. In addition, the “ABTS•+ scavenging IC50” value in the assay “ABTS radical scavenging” was 6.99 µg/mL. In addition, the “DMPD•+ scavenging IC50” value in the assay “DMPD radical scavenging” worked out at 8.72 µg/mL. In assay [3], the “median inhibitory concentration (IC50)” value is 21.7 µg/mL.
In the case of `O=C(O)[C@H]1O[C@@H](Oc2cc3oc(-c4ccccc4)cc(=O)c3c(O)c2O)[C@H](O)[C@@H](O)[C@@H]1O` [baicalin], the IC50 in assay [3] (read-out: DPPH radical IC50) is 64900 nM; in the assay on AChE (a different study, read-out: 50% inhibition of AChE activity (IC50)) it was 124000 nM.
As to `CCCCCc1cc(O)cc(O)c1` [olivetol], the “Cu^2+ reduction absorbance” value in assay [2] is 1.314. Besides, the “DPPH radical scavenging IC50” value in assay [3] is 17.77 µg/mL. For the same molecule, the “ABTS•+ scavenging IC50” value in assay [4] is 1.94 µg/mL. The “DMPD•+ scavenging IC50” value in assay [5] was 19.25 µg/mL.
Regarding L-Adrenaline [reference compound], the “DPPH radical scavenging IC50” value in assay [3] was 30.6 µg/mL. Also, the “ABTS•+ scavenging IC50” value in assay [4] was 6.93 µg/mL. For the same molecule, the “DMPD•+ scavenging IC50” value in [5] was 15.6 µg/mL.
`Cc1c(C)c2c(c(C)c1O)CC[C@@](C)(CCC[C@H](C)CCC[C@H](C)CCCC(C)C)O2` [α-Tocopherol]: in assay [6], the “Fe^3+ reducing, absorbance λ (700 nm)” value is 0.957 ± 0.018 and 0.957. The “Cu^2+ reducing, absorbance λ (450 nm)” value in assay [7] was 0.816 ± 0.041 and 0.816. Besides, the “DPPH• scavenging IC50” value in the assay “DPPH radical scavenging” was determined as 11.31 µg/mL. In “ABTS radical scavenging”, the “ABTS•+ scavenging IC50” value came to 8.37 µg/mL. For the same molecule, the “DMPD•+ scavenging IC50” value in the assay “DMPD radical scavenging” turned out to be 7.11 µg/mL.
Regarding `O=c1[nH]c(=O)c2[nH]c(=O)[nH]c2[nH]1` [uric acid], the “Fe^3+ reducing absorbance” value in [1] is 0.432.
On to tannic acid, for which the “Fe^3+ reducing absorbance” value in assay [1] is on record as 2.428.
For `O=C(O)/C=C/c1ccc(O)c(O)c1` [caffeic acid], in assay [1], the “Fe^3+ reducing absorbance” value is 2.769.
In the case of `O=C(/C=C/c1ccc(O)c(O)c1)OCCc1ccccc1` [CAPE, caffeic acid phenethyl ester], the “Fe^3+ reducing absorbance” value in assay [1] is 2.509. The “DPPH radical scavenging IC50” value in assay [3] was 3.30 µg/mL. Also, in [4], the “ABTS•+ scavenging IC50” value was 9.80 µg/mL. Also, the “DMPD•+ scavenging IC50” value in assay [5] is 26.70 µg/mL.
As for `O=C1O[C@H]([C@@H](O)CO)C(O)=C1O` [ascorbic acid, reference compound], in assay [3], the “median inhibitory concentration (IC50)” value is 19.6 µg/mL.
Consider `COc1ccc(O)c(C(C)(C)C)c1` [BHA, butylated hydroxyanisole], for which the “Fe^3+ reducing, absorbance λ (700 nm)” value in [6] was 2.347 ± 0.046 and 2.347. The “Cu^2+ reducing, absorbance λ (450 nm)” value in assay [7] was 2.216 ± 0.059 and 2.216. Further, the “DPPH• scavenging IC50” value in the assay “DPPH radical scavenging” turned out to be 10.10 µg/mL. For the same molecule, the “ABTS•+ scavenging IC50” value in the assay “ABTS radical scavenging” was 5.07 µg/mL. Further, the “DMPD•+ scavenging IC50” value in the assay “DMPD radical scavenging” worked out at 11.99 µg/mL.
`O=c1oc2cc(O)ccc2c2oc3cc(O)ccc3c12` [coumestrol]: the “Fe^3+ reducing absorbance” value in assay [1] is listed as 0.739. The “Cu^2+ reduction absorbance” value in assay [2] is on record as 0.780. The “DPPH radical scavenging IC50” value in [3] was 25.95 µg/mL. Besides, the “ABTS•+ scavenging IC50” value in assay [4] is 12.24 µg/mL. In addition, in assay [5], the “DMPD•+ scavenging IC50” value is 12.81 µg/mL. The Ki on AChE was 21.4 nM.
Consider `COc1ccc2c(c1O)-c1c(O)c(OC)cc3c1[C@H](C2)[N+](C)(C)CC3` [magnofluorine], for which the “Fe^3+ reducing absorbance” value in assay [1] is 0.967. Also, in assay [2], the “Cu^2+ reduction absorbance” value is 0.468. The “DPPH radical scavenging IC50” value in assay [3] is 10.58 µg/mL. In [4], the “ABTS•+ scavenging IC50” value is 27.61 µg/mL. In [5], the “DMPD•+ scavenging IC50” value is 15.16 µg/mL.
Turning to `CC(=O)c1c(O)c(C)c(O)c2c1OC1=CC(=O)C(C(C)=O)C(=O)C12C` (stereo not drawn) [usnic acid], the “Fe^3+ reducing absorbance” value in assay [1] is given as 0.278. Further, the “Cu^2+ reduction absorbance” value in [2] is given as 0.277. The “DPPH radical scavenging IC50” value in [3] is 49.50 µg/mL. The ABTS•+ scavenging IC50 in assay [4] is 10.4 µg/mL. Besides, in [5], the “DMPD•+ scavenging IC50” value was 33.00 µg/mL.
For `Cc1c(C)c2c(c(C)c1O)CCC(C)(C(=O)O)O2` (stereo not drawn) [Trolox], the “Fe^3+ reducing, absorbance λ (700 nm)” value in [6] is 2.119 ± 0.001 and 2.119. Besides, the “Cu^2+ reducing, absorbance λ (450 nm)” value in assay [7] was 1.548 ± 0.024 and 1.548. Further, in “DPPH radical scavenging”, the “DPPH• scavenging IC50” value was 7.059 µg/mL. The “ABTS•+ scavenging IC50” value in the assay “ABTS radical scavenging” was 6.16 µg/mL. Besides, the “DMPD•+ scavenging IC50” value in the assay “DMPD radical scavenging” is 4.33 µg/mL.

A word on the Ki: it is a dissociation constant, usually derived from enzyme kinetics or from competition with a known ligand. The term IC50 denotes the midpoint of a concentration-inhibition curve.
